Measurements published in US20140221225A1, “METHOD FOR OBTAINING A MULTICELLULAR SPHEROID” (Universiteit Leiden, priority 2011, published 2014).
“Also recorded” adds a separate entry of the source.

How the values were obtained:
4T1 cells = experiment: Proof-of-principle drug screen on automatically injected 4T1 multicellular spheroids in collagen gel, 96 well plate; type: cell-based, mouse; conditions: for Feret's Diameter (longest distance between any two points along the selection boundary, maximum caliper), averages / Circularity (4π*area/perimeter^2, 1 = perfect circle), averages / Invasion area (area day 4/area day 0), averages: 1:1000 dilution (10 μM); for Feret's Diameter (longest distance between any two points along the selection boundary, maximum caliper), averages / Circularity (4π*area/perimeter^2, 1 = perfect circle), averages: automated analysis of fluorescent actin staining at day 4; for Feret's Diameter (longest distance between any two points along the selection boundary, maximum caliper), averages: Figure 7B, ctrl 0.67, unit assumed; for Circularity (4π*area/perimeter^2, 1 = perfect circle), averages: Figure 7C, ctrl 0.15; for Invasion area (area day 4/area day 0), averages: manual from DIC images at day 0 and day 4, Figure 7A, ctrl 25.88; for Cell migration from 4T1 spheroids: visual inspection / actin images after 4 days, 4, 10, 20 μM
Protocol: (§1) Cell suspensions derived from trypsin-detached adherent cultures or from collagenase-treated biopsies were filtered to remove clumps, centrifuged at 1000 rpm for 5 minutes, and washed twice with PBS. ˜7×10^6 cells were re-suspended in 30 μl PBS containing 2% polyvinylpyrrolidone (PVP; Sigma-Aldrich). The PVP/cell suspension was loaded into a beveled pulled glass needle (Eppendorf CustomTip Type III, oD [μm] 60, Front surface 40, Flexibility: rigid).
A glass-bottom 96 well plate (Greiner) containing 60 μl solidified collagen gel per well was placed in a motorized stage (MTmot 200×100 MR, Märzhäuser) connected to a controller (Tango, Märzhäuser). A motorized micro-manipulator (Injectman II, Eppendorf) was positioned above the stage and connected to a pump (Femtojet Express, Eppendorf) featuring an external compressor (lubricated compressor, model 3-4, JUN-AIR). A firewire camera (DFK41BF02.H, The Imaging Source) equipped with an 8× macro lens (MR8/O, The Imaging Source) was placed beneath the stage for calibration and imaging. All components were connected to the controlling computer (Ubuntu AMD64). A multi-threaded control program was written in Python using PySerial and wxPython. Coriander software (http://damien.douxchamps.net/ieee1394/coriander) was used for imaging.
After the program was calibrated for the 96 well plate the camera height was adjusted to focus on the bottom of the 96 well plate. The plate was then removed for needle calibration: the injection needle was fixed in the Injectman and moved, using the Injectman controller, into the center of the image. The injection height was set to 200 µm above the bottom of the (virtual) plate. After the needle was moved up, the plate was placed back in position and the upper left well was used for multiple test injections to adjust pump pressure and injection time for optimization of the droplet size (300 µm diameter) using video inspection. Subsequently, using a pre-defined macro defining x-y coordinates and number of injections per well, all wells were injected using the same pressure and injection time.
Differential interference contrast (DIC) images were captured using a charged coupled device (CCD) camera with NIS Image Pro software at 10× dry objective. Quantification of spheroid invasion area was analyzed from DIC images using ImageJ. […] One-way ANOVA was performed to test the significance of the data (p<0.05). The data are presented and plotted as average and standard error of the mean; tables are available in the supplement.
For automated imaging, wells containing gel-embedded spheroids were treated with a fixation and staining cocktail containing 3.7% formaldehyde, 0.2% Triton X-100 (Sigma) and 0.1 μM rhodamine phalloidin (Sigma) for 3 hrs. Wells were washed extensively with PBS and plates were imaged on a Becton Dickinson Pathway 855 using a 4× lens. A montage of 12 frames was made for each Z plane, with a total of 24 Z planes at an interval of 50 μm. Image stacks were converted into 2D maximum fluorescence intensity projections using ImagePro 7.0. MS were then digitally segmented using ImageJ to identify the outline of individual spheroids and multiple parameters were measured, including spheroid Feret's diameter, roundness, and number of spheroids scored in each well.
LY-294002 (phosphatidylinositol 3-kinase), JSI-124-cucurbitacin (STAT3/Jak2), and NSC23766 (Rac1) were purchased from Merck/CalBiochem. PP2 (Src) and ML-7 (MLC kinase) were purchased from ENZO. Y-27632 (Rock) and SB-431542 (TGFb) were purchased from BioMol Tocris. AG1478 (EGFR) was purchased from BioMol and AG-82 (general protein tyrosine kinases) was purchased from Calbiochem. Cell migration was analyzed in the absence and presence of inhibitors for 4 days.
A proof of principle drug screen was performed to test the applicability of this procedure to automated high-throughput drug screening assays (HTS). […]

Chondrosarcoma = experiment: Inhibitor treatment of spheroids from fresh human chondrosarcoma biopsy in collagen gel; type: cell-based; conditions: lowest collagen concentration 1.0 mg/ml; bright-field images after 6 days; treatment from 1 day post-injection
Text: (§2) FIG. 9: Spheroids obtained from two fresh human biopsies. […] The lowest concentration, row G, triggers the largest migration in Chondrosarcoma as well (G5) while the type of migration remains the same between the row F and row G (see F4, G5). […] Scale=100 μm.
(§3) Human biopsy material was obtained from surplus material from patients that were surgically treated for chondrosarcoma or osteosarcoma. Tumor cell suspensions were derived from biopsies by overnight collagenase treatment at room temperature.
as §1
(§4) Next, cell suspensions were derived from freshly isolated human biopsies of osteosarcoma and chondrosarcoma and injected in gels containing three different collagen concentrations. MS readily formed from these human biopsies and survival and migration could be studied for up to 1 week with the two tumor types showing distinct migratory behavior (FIG. 9). […] MS were treated with the range of compounds described above starting 1 day post-injection. […] Thus, the automated MS injection methodology has the potential to be used for large scale screening for the drug sensitivity spectrum of tumor cells freshly isolated from individual patients.

Osteosarcoma = experiment: Inhibitor treatment of spheroids from fresh human osteosarcoma biopsy in collagen gel; type: cell-based; conditions: lowest collagen concentration 1.0 mg/ml; bright-field images after 6 days; treatment from 1 day post-injection
Text: as §2, §3, §1, §4

Q: Which results are given for `CCN(CC)CCCC(C)Nc1nc(C)cc(Nc2ccc3nc(C)cc(N)c3c2)n1` (centres unmarked) [NSC23766]?
A: Feret's Diameter (longest distance between any two points along the selection boundary, maximum caliper), averages (4T1 cells): 0.37 mm; Circularity (4π*area/perimeter^2, 1 = perfect circle), averages (4T1 cells): 0.29; Invasion area (area day 4/area day 0), averages (4T1 cells): 17.51

Q: How did the “Migration of Chondrosarcoma spheroids” value (Chondrosarcoma) turn out when `CC(C)(C)n1nc(-c2ccc(Cl)cc2)c2c(N)ncnc21` [PP2] was run?
A: reduces migration; also recorded: effectively inhibited migration

Q: What about the Feret's Diameter (longest distance between any two points along the selection boundary, maximum caliper), averages (4T1 cells) of the same compound?
A: 0.55 mm

Q: What about the “Circularity (4π*area/perimeter^2, 1 = perfect circle), averages” value (4T1 cells) of the same compound?
A: 0.19

Q: What about the “Invasion area (area day 4/area day 0), averages” value (“Invasion area” below) (4T1 cells) of the same compound?
A: 22.48

Q: And the “Migration of Osteosarcoma spheroids” value (Osteosarcoma)?
A: block migration; also recorded: effectively inhibited migration

Q: `CC(C)(O)/C=C/C(=O)[C@](C)(O)[C@H]1[C@H](O)C[C@@]2(C)[C@@H]3CC=C4[C@@H](C=C(O)C(=O)C4(C)C)[C@]3(C)C(=O)C[C@]12C` [JSI-124] was tested. Which “Migration of Chondrosarcoma spheroids” value (Chondrosarcoma) did it give?
A: block migration completely; also recorded: effectively inhibited migration

Q: And the Feret's Diameter (longest distance between any two points along the selection boundary, maximum caliper), averages (4T1 cells)?
A: 0.23 mm

Q: What about the “Circularity (4π*area/perimeter^2, 1 = perfect circle), averages” value (4T1 cells) of the same compound?
A: 0.78

Q: What about the “Invasion area” value (4T1 cells) of the same compound?
A: 1.01

Q: And the “Cell migration from 4T1 spheroids” value (4T1 cells)?
A: Effects on cell migration could be clearly observed; also recorded: blocked migration, but left the MS intact

Q: What about the “Migration of Osteosarcoma spheroids” value (Osteosarcoma) of the same compound?
A: block migration; also recorded: effectively inhibited migration

Q: How did the Feret's Diameter (longest distance between any two points along the selection boundary, maximum caliper), averages (4T1 cells) turn out when `NC(=O)c1ccc(-c2nc(-c3ccc4c(c3)OCO4)c(-c3ccccn3)[nH]2)cc1` [SB-431542] was run?
A: 0.46 mm

Q: What about the “Circularity (4π*area/perimeter^2, 1 = perfect circle), averages” value (4T1 cells) of the same compound?
A: 0.22

Q: What about the “Invasion area” value (4T1 cells) of the same compound?
A: 16

Q: What does the source list for `O=S(=O)(c1cccc2c(I)cccc12)N1CCCNCC1` [ML-7]?
A: Migration of Chondrosarcoma spheroids (Chondrosarcoma): block migration completely; also recorded: effectively inhibited migration; Invasion area (area day 4/area day 0), averages (4T1 cells): 1.09; Cell survival in 4T1 spheroids (4T1 cells; rhodamine phalloidin actin fluorescence, 4 days treatment): did not survive the treatment; also recorded: affected cell survival; Cell migration from 4T1 spheroids (4T1 cells): Effects on cell migration could be clearly observed; Migration of Osteosarcoma spheroids (Osteosarcoma): block migration; also recorded: effectively inhibited migration

Q: `C[C@@H](N)[C@H]1CC[C@H](C(=O)Nc2ccncc2)CC1` [Y-27632] was tested. Which “Migration of Chondrosarcoma spheroids” value (Chondrosarcoma) did it give?
A: stimulates migration

Q: And the Feret's Diameter (longest distance between any two points along the selection boundary, maximum caliper), averages (4T1 cells)?
A: 0.41 mm

Q: And the “Circularity (4π*area/perimeter^2, 1 = perfect circle), averages” value (4T1 cells)?
A: 0.35

Q: And the “Invasion area” value (4T1 cells)?
A: 16.86

Q: And the “Migration of Osteosarcoma spheroids” value (Osteosarcoma)?
A: stimulates migration

Q: Which “Migration of Chondrosarcoma spheroids” value (Chondrosarcoma) does the source give for `COc1cc2ncnc(Nc3cccc(Cl)c3)c2cc1OC` [AG1478] here?
A: block migration completely; also recorded: effectively inhibited migration

Q: And the Feret's Diameter (longest distance between any two points along the selection boundary, maximum caliper), averages (4T1 cells)?
A: 0.56 mm

Q: What about the “Circularity (4π*area/perimeter^2, 1 = perfect circle), averages” value (4T1 cells) of the same compound?
A: 0.19

Q: What about the “Invasion area” value (4T1 cells) of the same compound?
A: 25.75

Q: And the “Migration of Osteosarcoma spheroids” value (Osteosarcoma)?
A: block migration; also recorded: effectively inhibited migration

Q: With `N#CC(C#N)=Cc1cc(O)c(O)c(O)c1` [AG-82] as the compound, how does the Feret's Diameter (longest distance between any two points along the selection boundary, maximum caliper), averages (4T1 cells) read?
A: 0.46 mm

Q: And the “Circularity (4π*area/perimeter^2, 1 = perfect circle), averages” value (4T1 cells)?
A: 0.24

Q: What about the “Invasion area” value (4T1 cells) of the same compound?
A: 20.96

Q: What does the source list for `O=c1cc(N2CCOCC2)oc2c(-c3ccccc3)cccc12` [LY-294002]?
A: Feret's Diameter (longest distance between any two points along the selection boundary, maximum caliper), averages (4T1 cells): 0.38 mm; Circularity (4π*area/perimeter^2, 1 = perfect circle), averages (4T1 cells): 0.26; Invasion area (area day 4/area day 0), averages (4T1 cells): 14.91
